Each structure is given as a SMILES string.

Results on 23 compounds are retold here after patent US20200131132A1, “FARNESOID X RECEPTOR AGONISTS AND USES THEREOF” (Metacrine, Inc., priority 2017, published 2020).

This assay addresses T1, hFXR (Homo sapiens, UniProt Q96RI1).
T1 construct: expressed in transfected cells; host or cells: CV-1 cells
T1 sequence (Q96RI1 1-486): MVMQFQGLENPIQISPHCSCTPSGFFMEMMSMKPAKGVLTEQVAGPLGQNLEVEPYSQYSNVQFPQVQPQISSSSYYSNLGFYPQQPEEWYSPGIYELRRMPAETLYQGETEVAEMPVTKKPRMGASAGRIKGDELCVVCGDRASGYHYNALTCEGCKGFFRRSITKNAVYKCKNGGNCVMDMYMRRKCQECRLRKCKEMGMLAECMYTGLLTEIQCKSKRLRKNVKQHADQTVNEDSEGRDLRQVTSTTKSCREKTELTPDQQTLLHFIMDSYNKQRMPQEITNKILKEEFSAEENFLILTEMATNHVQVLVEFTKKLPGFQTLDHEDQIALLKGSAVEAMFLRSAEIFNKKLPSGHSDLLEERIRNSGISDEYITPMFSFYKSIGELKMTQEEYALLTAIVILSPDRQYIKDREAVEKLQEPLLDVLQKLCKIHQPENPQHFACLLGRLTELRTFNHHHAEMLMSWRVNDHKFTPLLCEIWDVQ
T1 sequence (P19793 1-462 partner): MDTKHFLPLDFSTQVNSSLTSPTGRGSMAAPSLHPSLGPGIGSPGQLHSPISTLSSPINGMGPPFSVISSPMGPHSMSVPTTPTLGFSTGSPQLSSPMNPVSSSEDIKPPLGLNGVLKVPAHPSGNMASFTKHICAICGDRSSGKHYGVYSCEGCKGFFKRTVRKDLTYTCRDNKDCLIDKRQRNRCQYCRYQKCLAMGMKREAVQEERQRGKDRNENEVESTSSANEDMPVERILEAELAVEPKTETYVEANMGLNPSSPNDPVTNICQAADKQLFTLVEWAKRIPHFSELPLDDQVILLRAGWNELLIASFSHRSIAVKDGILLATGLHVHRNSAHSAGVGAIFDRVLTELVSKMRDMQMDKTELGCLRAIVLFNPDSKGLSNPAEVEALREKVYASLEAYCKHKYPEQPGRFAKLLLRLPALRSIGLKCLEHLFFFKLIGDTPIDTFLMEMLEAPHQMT
As to the kind of experiment: In Vitro FXR Assay (TK). The assay is classed as cell-based. To be noted: CV-1 cells transfected with hFXR, hRXR, TK-ECRE-luc and pCMX-YFP; compounds incubated 18 hrs; luminescence. How it is done:
CV-1 cells were seeded at a density of 2,000,000 cells in a T175 flask with DMEM+10% charcoal double-stripped FBS and incubated at 37° C. in 5% CO2 for 18 h (O/N).
After 18 h of incubation, the medium in the T175 flask was changed with fresh DMEM+10% charcoal super-stripped serum. In a polypropylene tube, 2500 μL OptiMEM (Life Technologies, Cat #31985-062) was combined with expression plasmids for hFXR, hRXR, TK-ECRE-luc and pCMX-YFP. The tube was then briefly vortexed and incubated at room temperature for 5 minutes. Transfection reagent (X-tremeGENE HP from Roche, Cat #06 366 236 001) was added to the OptiMEM/plasmid mixture vortexed and incubated at room temperature for 20 minutes. Following incubation, the transfection reagent/DNA mixture complex was added to cells in the T175 flask and the cells were incubated at 37° C. in 5% CO2 for 18 h (O/N).
Compounds were serially diluted in DMSO and added to transfected CV-1 cells. The cells were then incubated for 18 hrs. The next day cells were lysed and examined for luminescence.
In general, EC50 refers to the concentration at which the effect is half-maximal. With `COc1ccc(-c2ccc(CN(C(=O)CC(C)(C)C)c3nccc4cc(N5CCCCC5)ccc34)cc2)cc1C` [Compound 6.07, N-((4′-Methoxy-3′-methyl-[1,1′-biphenyl]-4-yl)methyl)-3,3-dimethyl-N-(6-(piperidin-1-yl)isoquinolin-1-yl)butanamide], the EC50 was no more than 1000 nM.

`COc1ccc(-c2ccc(CN(C(=O)CC(C)(C)C)c3nccc4cc(NCCO)ccc34)cc2)cc1C` [Compound 6.02, N-(6-((2-Hydroxyethyl)amino)isoquinolin-1-yl)-N-((4′-methoxy-3′-methyl-[1,1′-biphenyl]-4-yl)methyl)-3,3-dimethylbutanamide] displayed an EC50 of no more than 1000 nM.

On to `COc1ccc(-c2ccc(CN(C(=O)CC(C)(C)C)c3nccc4cc(N5CCC(O)CC5)ccc34)cc2)cc1C` [Compound 6.18, N-(6-(4-Hydroxypiperidin-1-yl)isoquinolin-1-yl)-N-((4′-methoxy-3′-methyl-[1,1′-biphenyl]-4-yl)methyl)-3,3-dimethylbutanamide], for which the EC50 is no more than 1000 nM.

Compound `CNc1ccc2c(N(Cc3ccc(-c4ccc(OC)c(C)c4)cc3)C(=O)CC(C)(C)C)nccc2c1` [Compound 6.11, N-((4′-Methoxy-3′-methyl-[1,1′-biphenyl]-4-yl)methyl)-3,3-dimethyl-N-(6-(methylamino)isoquinolin-1-yl)butanamide] gave an EC50 of no more than 1000 nM.

Take `COc1ccc(-c2ccc(CN(C(=O)CC(C)(C)C)c3nccc4cc(OCCO)ccc34)cc2)cc1C` [Compound 8.11, N-(6-(2-Hydroxyethoxy)isoquinolin-1-yl)-N-((4′-methoxy-3′-methyl-[1,1′-biphenyl]-4-yl)methyl)-3,3-dimethylbutanamide]: the EC50 was no more than 1000 nM.

`COc1ccc(-c2ccc(CN(C(=O)CC(C)(C)C)c3nccc4cc(N5CCN(C)CC5)ccc34)cc2)cc1C` [Compound 6.05, N-((4′-Methoxy-3′-methyl-[1,1′-biphenyl]-4-yl)methyl)-3,3-dimethyl-N-(6-(4-methylpiperazin-1-yl)isoquinolin-1-yl)butanamide] displayed an EC50 of 1000 to 10000 nM.

Compound `COc1ccc(-c2ccc(CN(C(=O)CC(C)(C)C)c3nccc4cccnc34)cc2)cc1C` [Compound 4.09, N-((4′-Methoxy-3′-methyl-[1,1′-biphenyl]-4-yl)methyl)-3,3-dimethyl-N-(1,7-naphthyridin-8-yl)butanamide] yielded an EC50 of no more than 1000 nM.

As to `COC(=O)Nc1ccc2c(N(Cc3ccc(-c4ccc(OC)c(C)c4)cc3)C(=O)CC(C)(C)C)nccc2c1` [Compound 6.21, Methyl (l-(N-((4′-methoxy-3′-methyl-[1,1′-biphenyl]-4-yl)methyl)-3,3-dimethylbutanamido)isoquinolin-6-yl)carbamate], the concentration giving a half-maximal response (EC50) is no more than 1000 nM.

`COc1ccc(-c2ccc(CN(C(=O)CC(C)(C)C)c3nccc4cc(-c5ncco5)ccc34)cc2)cc1C` [Compound 14, N-((4′-Methoxy-3′-methyl-[1,1′-biphenyl]-4-yl)methyl)-3,3-dimethyl-N-(6-(oxazol-2-yl)isoquinolin-1-yl)butanamide] had an EC50 of no more than 1000 nM.

On to `COc1ccc(-c2ccc(CN(C(=O)CC(C)(C)C)c3nccc4cc(-c5ccccn5)ccc34)cc2)cc1C` [Compound 16, N-((4′-Methoxy-3′-methyl-[1,1′-biphenyl]-4-yl)methyl)-3,3-dimethyl-N-(6-(pyridin-2-yl)isoquinolin-1-yl)butanamide], for which the EC50 was no more than 1000 nM.

`COc1ccc(-c2ccc(CN(C(=O)CC(C)(C)C)c3nccc4cc(OC5COC5)ccc34)cc2)cc1C` [Compound 8.09, N-((4′-Methoxy-3′-methyl-[1,1′-biphenyl]-4-yl)methyl)-3,3-dimethyl-N-(6-(oxetan-3-yloxy)isoquinolin-1-yl)butanamide] displayed an EC50 of no more than 1000 nM.

Regarding `COc1ccc(-c2ccc(CN(C(=O)CC(C)(C)C)c3nccc4cc(OC(C)C)ccc34)cc2)cc1C` [Compound 11.01, N-(6-Isopropoxyisoquinolin-1-yl)-N-((4′-methoxy-3′-methyl-[1,1′-biphenyl]-4-yl)methyl)-3,3-dimethylbutanamide], the EC50 was no more than 1000 nM.

`COc1ccc(-c2ccc(CN(C(=O)CC(C)(C)C)c3nccc4c(Br)cccc34)cc2)cc1C` [Compound 4.07, N-(5-Bromoisoquinolin-1-yl)-N-((4′-methoxy-3′-methyl-[1,1′-biphenyl]-4-yl)methyl)-3,3-dimethylbutanamide] registered an EC50 greater than 10000 nM.

In turn, `COc1ccc(-c2ccc(CN(C(=O)CC(C)(C)C)c3nccc4cc(N5CCC(CO)C5)ccc34)cc2)cc1C` (centres unmarked) [Compound 6.16, N-(6-(3-(Hydroxymethyl)pyrrolidin-1-yl)isoquinolin-1-yl)-N-((4′-methoxy-3′-methyl-[1,1′-biphenyl]-4-yl)methyl)-3,3-dimethylbutanamide] yielded an EC50 of no more than 1000 nM.

Turning to `COc1ccc(-c2ccc(CN(C(=O)CC(C)(C)C)c3nccc4cc(COCC(=O)N(C)C)ccc34)cc2)cc1C` [Compound 19.02, N-(6-((2-(Dimethylamino)-2-oxoethoxy)methyl)isoquinolin-1-yl)-N-((4′-methoxy-3′-methyl-[1,1′-biphenyl]-4-yl)methyl)-3,3-dimethylbutanamide], the EC50 was 1000 to 10000 nM.

`COc1ccc(-c2ccc(CN(C(=O)CC(C)(C)C)c3cccc4ccncc34)cc2)cc1C` [Compound 5.02, N-(Isoquinolin-8-yl)-N-((4′-methoxy-3′-methyl-[1,1′-biphenyl]-4-yl)methyl)-3,3-dimethylbutanamide] returned a 50% effective concentration (EC50) greater than 10000 nM.

In the case of `COc1ccc(-c2ccc(CN(C(=O)CC(C)(C)C)c3nccc4cc(OC(C)CCO)ccc34)cc2)cc1C` (centres unmarked) [Compound 10.01, N-(6-((4-Hydroxybutan-2-yl)oxy)isoquinolin-1-yl)-N-((4′-methoxy-3′-methyl-[1,1′-biphenyl]-4-yl)methyl)-3,3-dimethylbutanamide], the EC50 is no more than 1000 nM.

`COc1ccc(-c2ccc(CN(C(=O)CC(C)(C)C)c3nccc4cc(N5CCC(CCO)C5)ccc34)cc2)cc1C` (centres unmarked) [Compound 6.14, N-(6-(3-(2-Hydroxyethyl)pyrrolidin-1-yl)isoquinolin-1-yl)-N-((4′-methoxy-3′-methyl-[1,1′-biphenyl]-4-yl)methyl)-3,3-dimethylbutanamide]: the EC50 was no more than 1000 nM.

With `COc1ccc(-c2ccc(CN(C(=O)CC(C)(C)C)c3nccc4cc(OC5CCNCC5)ccc34)cc2)cc1C` [Compound 28, N-((4′-Methoxy-3′-methyl-[1,1′-biphenyl]-4-yl)methyl)-3,3-dimethyl-N-(6-(piperidin-4-yloxy)isoquinolin-1-yl)butanamide], the EC50 is greater than 10000 nM.

In the case of `COc1ccc(-c2ccc(CN(C(=O)CC(C)(C)C)c3nccc4cc(OCCS(C)(=O)=O)ccc34)cc2)cc1C` [Compound 32, N-((4′-Methoxy-3′-methyl-[1,1′-biphenyl]-4-yl)methyl)-3,3-dimethyl-N-(6-(2-(methylsulfonyl)ethoxy)isoquinolin-1-yl)butanamide], the EC50 is no more than 1000 nM.

`COc1ccc(-c2ccc(CN(C(=O)CC(C)(C)C)c3nccc4cc(/C=C\CO)ccc34)cc2)cc1C` [Compound 22, (Z)-N-(6-(3-Hydroxyprop-1-en-1-yl)isoquinolin-1-yl)-N-((4′-methoxy-3′-methyl-[1,1′-biphenyl]-4-yl)methyl)-3,3-dimethylbutanamide] yielded an EC50 of no more than 1000 nM.

`COc1ccc(-c2ccc(CN(C(=O)CC(C)(C)C)c3cccc4cnccc34)cc2)cc1C` [Compound 5.01, N-(Isoquinolin-5-yl)-N-((4′-methoxy-3′-methyl-[1,1′-biphenyl]-4-yl)methyl)-3,3-dimethylbutanamide] came in with an EC50 greater than 10000 nM.

For `COc1ccc([C@H]2CC[C@H](CN(C(=O)CC(C)(C)C)c3nccc4cc(CO)ccc34)CC2)cc1C` [Compound 2, N-(6-(Hydroxymethyl)isoquinolin-1-yl)-N-((trans-4-(4-methoxy-3-methylphenyl)cyclohexyl)methyl)-3,3-dimethylbutanamide], the EC50 was no more than 1000 nM.
